Columns and labels:
Assay type in all cases: in vivo
Setaria faberi (SETFA) [1] = assay: Pre-emergence Test (glasshouse, percentage damage to the plant); conditions: 1000 g/ha unless otherwise stated, five-point scale
Zea mays (ZEAMX) [2] = assay: as above; conditions: 1000 g/ha unless otherwise stated, five-point scale
[3] = test system: Ipomoea hederacea (IPOHE); assay: as above; conditions: 1000 g/ha unless otherwise stated, five-point scale
[4] = test system: Amaranthus retoflexus (AMARE); assay: as above; conditions: 1000 g/ha unless otherwise stated, five-point scale
[5] = test system: Abutilon theophrasti (ABUTH); assay: as above; conditions: 1000 g/ha unless otherwise stated, five-point scale
[6] = test system: Echinochloa crus-galli (ECHCG); assay: as above; conditions: 1000 g/ha unless otherwise stated, five-point scale
[7] = test system: Amaranthus retoflexus (AMARE); assay: Post-emergence Test (glasshouse, percentage damage to the plant); conditions: post-emergence spray, 1000 g/ha unless otherwise stated, evaluated after 13 days
How it was run: (§1)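 Sown pots; spray 1000 g/ha (unless stated) in acetone/water 50:50 + 0.5% Tween 20; glasshouse 24/16 °C, 14 h light, 65% RH; watered twice daily; % damage read at 13 days, scored 1–5.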

Setaria faberi (SETFA) [8] = assay: as above; conditions: post-emergence spray, 1000 g/ha unless otherwise stated, evaluated after 13 days
How it was run: (§2)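 Spray treatment of sown glasshouse pots at 1000 g/ha (default rate), vehicle acetone/water 50:50 plus 0.5% Tween 20. Read-out: percentage damage after 13 days, converted to a score where 5 denotes 81-100% and 1 denotes 0-20%.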

[9] = test system: Abutilon theophrasti (ABUTH); assay: as above; conditions: post-emergence spray, 1000 g/ha unless otherwise stated, evaluated after 13 days
How it was run: as §1

Zea mays (ZEAMX) [10] = assay: as above; conditions: post-emergence spray, 1000 g/ha unless otherwise stated, evaluated after 13 days
How it was run: as §2

[11] = test system: Echinochloa crus-galli (ECHCG); assay: as above; conditions: post-emergence spray, 1000 g/ha unless otherwise stated, evaluated after 13 days
How it was run: as §1

[12] = test system: Ipomoea hederacea (IPOHE); assay: as above; conditions: post-emergence spray, 1000 g/ha unless otherwise stated, evaluated after 13 days
How it was run: as §2

Structure (SMILES)	percentage damage to the plant, SETFA (Setaria faberi (SETFA) [1])	percentage damage to the plant, ZEAMX (Zea mays (ZEAMX) [2])	percentage damage to the plant, IPOHE [3]	percentage damage to the plant, AMARE [4]	percentage damage to the plant, ABUTH [5]	percentage damage to the plant, ECHCG [6]	Post-emergence Test AMARE, percentage damage to the plant (five-point scale) [7]	Post-emergence Test SETFA, percentage damage to the plant (five-point scale) (Setaria faberi (SETFA) [8])	Post-emergence Test ABUTH, percentage damage to the plant (five-point scale) [9]	Post-emergence Test ZEAMX, percentage damage to the plant (five-point scale) (Zea mays (ZEAMX) [10])	Post-emergence Test ECHCG, percentage damage to the plant (five-point scale) [11]	Post-emergence Test IPOHE, percentage damage to the plant (five-point scale) [12]
CCn1c(C)c(-c2ccc(Cl)cc2)c(=O)c(C(=O)O)c1-c1ccc(F)c(F)c1 [Compound 128, 5-(4-chlorophenyl)-2-(3,4-difluorophenyl)-1-ethyl-6-methyl-4-oxo-pyridine-3-carboxylic acid]	5 (5=81-100%)	2 (2=21-40%)	1 (1=0-20%)	4 (4=61-80%)	3 (3=41-60%)	2 (2=21-40%)	3 (3=41-60%)	4 (4=61-80%)	4 (4=61-80%)	3 (3=41-60%)	3 (3=41-60%)	2 (2=21-40%)
CCOC(=O)c1c(-c2ccc(Br)c(F)c2)n(CC)c(C)c(-c2ccc(Cl)cc2)c1=O [Compound 139, ethyl 2-(4-bromo-3-fluoro-phenyl)-5-(4-chlorophenyl)-1-ethyl-6-methyl-4-oxo-pyridine-3-carboxylate]	0	0	0	0	0	0	3 (3=41-60%)	3 (3=41-60%)	4 (4=61-80%)	2 (2=21-40%)	2 (2=21-40%)	1 (1=0-20%)
CCn1c(C)c(-c2ccc(COC)cc2)c(=O)c(C(=O)O)c1-c1ccc(Cl)c(Cl)c1 [Compound 111, 2-(3,4-dichlorophenyl)-1-ethyl-5-[4-(methoxymethyl)phenyl]-6-methyl-4-oxo-pyridine-3-carboxylic acid]	5 (5=81-100%)	3 (3=41-60%)	1 (1=0-20%)	1 (1=0-20%)	2 (2=21-40%)	4 (4=61-80%)	2 (2=21-40%)	4 (4=61-80%)	4 (4=61-80%)	2 (2=21-40%)	3 (3=41-60%)	2 (2=21-40%)
CCn1c(C)c(-c2cc(F)cc(Cl)c2)c(=O)c(C(=O)O)c1-c1ccc(Cl)c(Cl)c1 [Compound 62, 5-(3-chloro-5-fluoro-phenyl)-2-(3,4-dichlorophenyl)-1-ethyl-6-methyl-4-oxo-pyridine-3-carboxylic acid]	2 (2=21-40%)	1 (1=0-20%)	1 (1=0-20%)	1 (1=0-20%)	1 (1=0-20%)	1 (1=0-20%)	1 (1=0-20%)	1 (1=0-20%)	2 (2=21-40%)	1 (1=0-20%)	1 (1=0-20%)	2 (2=21-40%)
CCn1c(C)c(-c2ccc(OC)c(C(F)(F)F)c2)c(=O)c(C(=O)O)c1-c1ccc(Cl)c(Cl)c1 [Compound 81, 2-(3,4-dichlorophenyl)-1-ethyl-5-[4-methoxy-3-(trifluoromethyl)phenyl]-6-methyl-4-oxo-pyridine-3-carboxylic acid]	4 (4=61-80%)	1 (1=0-20%)	1 (1=0-20%)	1 (1=0-20%)	1 (1=0-20%)	1 (1=0-20%)	2 (2=21-40%)	3 (3=41-60%)	3 (3=41-60%)	1 (1=0-20%)	3 (3=41-60%)	2 (2=21-40%)
CCn1c(C)c(-c2cccs2)c(=O)c(C(=O)O)c1-c1ccc(Cl)cc1 [Compound 165, 2-(4-chlorophenyl)-1-ethyl-6-methyl-4-oxo-5-(2-thienyl)pyridine-3-carboxylic acid]	0	0	1 (1=0-20%)	1 (1=0-20%)	1 (1=0-20%)	0	0	1 (1=0-20%)	2 (2=21-40%)	1 (1=0-20%)	0	2 (2=21-40%)
CCn1c(-c2ccc(Cl)c(Cl)c2)c(C(=O)O)c(=O)c(-c2ccc(Cl)cc2)c1C(F)(F)F [Compound 132, 5-(4-chlorophenyl)-2-(3,4-dichlorophenyl)-1-ethyl-4-oxo-6-(trifluoromethyl) pyridine-3-carboxylic acid]	0	0	2 (2=21-40%)	5 (5=81-100%)	4 (4=61-80%)	0	5 (5=81-100%)	0	3 (3=41-60%)	1 (1=0-20%)	0	4 (4=61-80%)
CCn1c(C)c(-c2cccc(C(C)=O)c2)c(=O)c(C(=O)O)c1-c1ccc(Cl)c(Cl)c1 [Compound 112, 5-(3-acetylphenyl)-2-(3,4-dichlorophenyl)-1-ethyl-6-methyl-4-oxo-pyridine-3-carboxylic acid]	4 (4=61-80%)	1 (1=0-20%)	1 (1=0-20%)	1 (1=0-20%)	2 (2=21-40%)	1 (1=0-20%)	2 (2=21-40%)	4 (4=61-80%)	3 (3=41-60%)	1 (1=0-20%)	3 (3=41-60%)	2 (2=21-40%)
CCOC(=O)c1c(-c2ccc(Br)cc2F)n(CC)c(C)c(-c2ccc(Cl)cc2)c1=O [Compound 137, ethyl 2-(4-bromo-2-fluoro-phenyl)-5-(4-chlorophenyl)-1-ethyl-6-methyl-4-oxo-pyridine-3-carboxylate]	1 (1=0-20%)	0	0	5 (5=81-100%)	0	0	3 (3=41-60%)	3 (3=41-60%)	3 (3=41-60%)	2 (2=21-40%)	4 (4=61-80%)	3 (3=41-60%)
CCn1c(C)c(-c2cncc(F)c2)c(=O)c(C(=O)O)c1-c1ccc(Cl)c(Cl)c1 [Compound 85, 2-(3,4-dichlorophenyl)-1-ethyl-5-(5-fluoro-3-pyridyl)-6-methyl-4-oxo-pyridine-3-carboxylic acid]	4 (4=61-80%)	1 (1=0-20%)	1 (1=0-20%)	1 (1=0-20%)	2 (2=21-40%)	1 (1=0-20%)	1 (1=0-20%)	3 (3=41-60%)	3 (3=41-60%)	1 (1=0-20%)	1 (1=0-20%)	1 (1=0-20%)
